Results from patent US20060069132A1, “Azolecarboxamide herbicides” (priority 2004, published 2006).

Assays:
barnyardgrass [1] = experiment: Test A pre-/postemergence herbicide test; format: in vivo, Echinochloa crus-galli
Method in brief: (§1)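 Greenhouse injury scoring (0–100, complete control = 100) at approximately ten days follows simultaneous pre- and postemergence application. Soil received a directed spray after seeding; seedlings of 2–10 cm at the one- to two-leaf stage were sprayed to runoff.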

large crabgrass [2] = experiment: Test A pre-/postemergence herbicide test; format: in vivo, Digitaria sanguinalis
Method in brief: as §1

giant foxtail [3] = experiment: Test A pre-/postemergence herbicide test; format: in vivo, Setaria faberi
Method in brief: as §1

morningglory [4] = experiment: Test A pre-/postemergence herbicide test; format: in vivo, Ipomoea spp.
Method in brief: as §1

redroot pigweed = experiment: Test A pre-/postemergence herbicide test; format: in vivo, Amaranthus retroflexus
Method in brief: as §1

velvetleaf [5] = experiment: Test A pre-/postemergence herbicide test; format: in vivo, Abutilon theophrasti
Method in brief: as §1

barnyardgrass [6] = experiment: Test B pre-/postemergence herbicide test; format: in vivo, Echinochloa crus-galli
Method in brief: (§2)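 Formulation: non-phytotoxic solvent mix with surfactant. Timing: preemergence on seed and postemergence on 2–18 cm plants, applied concurrently. Readout after 13–15 d greenhouse: visual 0–100 control rating against controls.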

Surinam grass = experiment: Test B pre-/postemergence herbicide test; format: in vivo, Urochloa decumbens
Method in brief: (§3)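 Pre: seeds sown, then sprayed. Post: 1–4-leaf plants (2–18 cm) sprayed at the same time. Paddy: flooded, treated at 2-leaf stage. Formulation: non-phytotoxic solvent with surfactant. Greenhouse 13–15 days; visual 0–100 score relative to controls.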

cocklebur = experiment: Test B pre-/postemergence herbicide test; format: in vivo, Xanthium strumarium
Method in brief: as §2

corn = experiment: Test B pre-/postemergence herbicide test; format: in vivo, Zea mays
Method in brief: as §3

large crabgrass [7] = experiment: Test B pre-/postemergence herbicide test; format: in vivo, Digitaria sanguinalis
Method in brief: as §3

giant foxtail [8] = experiment: Test B pre-/postemergence herbicide test; format: in vivo, Setaria faberi
Method in brief: as §3

lambsquarters = experiment: Test B pre-/postemergence herbicide test; format: in vivo, Chenopodium album
Method in brief: as §3

morningglory [9] = experiment: Test B pre-/postemergence herbicide test; format: in vivo, Ipomoea coccinea
Method in brief: as §2

pigweed = experiment: Test B pre-/postemergence herbicide test; format: in vivo, Amaranthus retroflexus
Method in brief: as §3

velvetleaf [10] = experiment: Test B pre-/postemergence herbicide test; format: in vivo, Abutilon theophrasti
Method in brief: as §3

blackgrass = experiment: Test B postemergence herbicide test; format: in vivo, Alopecurus myosuroides; conditions: scale 0 (no effect) to 100 (complete control)
Method in brief: (§4)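 Scale 0–100: zero equals no visible effect, 100 complete control, judged by eye relative to controls. Timing: 13 to 15 days in greenhouse post-treatment. Growth stage at spraying: two leaves (paddy) or one to four leaves, 2–18 cm (postemergence).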

wheat = experiment: Test B postemergence herbicide test; format: in vivo, Triticum aestivum; design: key to Wheat plant response rating: 0 = no effect, 100 = complete control; conditions: scale 0 (no effect) to 100 (complete control)
Method in brief: (§5)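 Each value is a visual 0–100 response rating taken against controls 13 to 15 days after treatment in the greenhouse. Plants received formulated chemical postemergence at the 1- to 4-leaf stage or, in flooded paddy, at the 2-leaf stage.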

wild oat = experiment: Test B postemergence herbicide test; format: in vivo, Avena fatua; conditions: scale 0 (no effect) to 100 (complete control)
Method in brief: as §5

rice = experiment: Test B flooded paddy test; format: in vivo, Oryza sativa; conditions: 1000 g ai/ha, visual rating, scale 0 to 100 (0 no effect, 100 complete control), 13 to 15 days
Method in brief: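 Plants grow to 1- to 4-leaf stage (2–18 cm) for postemergence spraying, or to 2-leaf stage for the paddy test. Formulated compound is applied. Greenhouse holding lasts 13–15 days. Response is scored visually relative to controls, 0 no effect to 100 complete control; a dash means no result.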

[11] = test system: small flower umbrella sedge; experiment: Test B flooded paddy test; format: in vivo, Cyperus difformis; conditions: 1000 g ai/ha, visual rating, scale 0 to 100 (0 no effect, 100 complete control), 13 to 15 days
Method in brief: as §4

ducksalad = experiment: Test B flooded paddy test; format: in vivo, Heteranthera limosa; conditions: 1000 g ai/ha, visual rating, scale 0 to 100 (0 no effect, 100 complete control), 13 to 15 days
Method in brief: as §4

barnyardgrass [12] = experiment: Test B flooded paddy test; format: in vivo, Echinochloa crus-galli; conditions: 1000 g ai/ha, visual rating, scale 0 to 100 (0 no effect, 100 complete control), 13 to 15 days
Method in brief: as §4

[13] = Postemergence, 500 g ai/ha, 0 to 100 scale, 0 no effect, 100 complete control
[14] = Postemergence, 2000 g ai/ha, 0 to 100 scale, 0 no effect, 100 complete control
[15] = Preemergence, 500 g ai/ha, visual rating, 0 to 100 scale (0 no effect, 100 complete control)
[16] = Preemergence, 2000 g ai/ha, visual rating, 0 to 100 scale (0 no effect, 100 complete control)
[17] = 500 g ai/ha, visual rating 0-100, 0 no effect, 100 complete control, preemergence
[18] = Postemergence, 500 g ai/ha, visual rating after 13 to 15 days, scale 0 (no effect) to 100 (complete control)
[19] = postemergence, 125 g ai/ha, visual rating, scale 0 (no effect) to 100 (complete control)
[20] = preemergence, 125 g ai/ha, 0 to 100 scale, 0 is no effect, 100 is complete control
[21] = Postemergence, 500 g ai/ha, visual rating after 13 to 15 days
[22] = postemergence, 125 g ai/ha, visual rating

Compound: CC(=NO)c1cc(NC(=O)c2cc(C(C)(C)C)nn2C)ccc1F [Compound 109]
- Barnyardgrass plant response rating (barnyardgrass [1]; [13]): 75
- Plant response rating, Barnyardgrass (barnyardgrass [1]; [14]): 90
- Barnyardgrass plant response rating (barnyardgrass [1]; [15]): 85
- Barnyardgrass plant response rating (barnyardgrass [1]; [16]): 90
- Crabgrass, Large plant response rating (large crabgrass [2]; [13]): 20
- Plant response rating, Crabgrass, Large (large crabgrass [2]; [14]): 55
- Crabgrass, Large plant response rating (large crabgrass [2]; [15]): 80
- Crabgrass, Large plant response rating (large crabgrass [2]; [16]): 95
- Foxtail, Giant plant response rating (giant foxtail [3]; [13]): 55
- Plant response rating, Foxtail, Giant (giant foxtail [3]; [14]): 90
- Foxtail, Giant plant response rating (giant foxtail [3]; [15]): 80
- Foxtail, Giant plant response rating (giant foxtail [3]; [16]): 90
- Morningglory plant response rating (morningglory [4]; [13]): 25
- Plant response rating, Morningglory (morningglory [4]; [14]): 40
- Morningglory plant response rating (morningglory [4]; [15]): 35
- Morningglory plant response rating (morningglory [4]; [16]): 45
- Pigweed plant response rating (redroot pigweed; [13]): 100
- Plant response rating, Pigweed (redroot pigweed; [14]): 100
- Pigweed plant response rating (redroot pigweed; [15]): 75
- Pigweed plant response rating (redroot pigweed; [16]): 100
- Velvetleaf plant response rating (velvetleaf [5]; [13]): 25
- Plant response rating, Velvetleaf (velvetleaf [5]; [14]): 45
- Velvetleaf plant response rating (velvetleaf [5]; [15]): 15
- Velvetleaf plant response rating (velvetleaf [5]; [16]): 25
- Plant response rating, Barnyardgrass (barnyardgrass [6]; [17]): 100
- Plant response rating, Barnyardgrass (barnyardgrass [6]; [18]): 20
- Barnyardgrass plant response rating (barnyardgrass [6]; [19]): 10
- Plant response rating, Barnyardgrass (barnyardgrass [6]; [20]): 80
- Plant response rating, Surinam Grass (Surinam grass; [17]): 80
- Plant response rating, Surinam Grass (Surinam grass; [18]): 20
- Surinam Grass plant response rating (Surinam grass; [19]): 10
- Plant response rating, Surinam Grass (Surinam grass; [20]): 60
- Plant response rating, Cocklebur (cocklebur; [17]): 20
- Plant response rating, Cocklebur (cocklebur; [18]): 70
- Cocklebur plant response rating (cocklebur; [19]): 30
- Plant response rating, Cocklebur (cocklebur; [20]): 0
- Plant response rating, Corn (corn; [17]): 10
- Plant response rating, Corn (corn; [18]): 20
- Corn plant response rating (corn; [19]): 10
- Plant response rating, Corn (corn; [20]): 0
- Plant response rating, Crabgrass, Large (large crabgrass [7]; [17]): 100
- Plant response rating, Crabgrass, Large (large crabgrass [7]; [18]): 10
- Crabgrass, Large plant response rating (large crabgrass [7]; [19]): 10
- Plant response rating, Crabgrass, Large (large crabgrass [7]; [20]): 80
- Plant response rating, Foxtail, Giant (giant foxtail [8]; [17]): 100
- Plant response rating, Foxtail, Giant (giant foxtail [8]; [18]): 20
- Foxtail, Giant plant response rating (giant foxtail [8]; [19]): 20
- Plant response rating, Foxtail, Giant (giant foxtail [8]; [20]): 70
- Plant response rating, Lambsquarters (lambsquarters; [17]): 90
- Plant response rating, Lambsquarters (lambsquarters; [18]): 20
- Lambsquarters plant response rating (lambsquarters; [19]): 10
- Plant response rating, Lambsquarters (lambsquarters; [20]): 20
- Plant response rating, Morningglory (morningglory [9]; [17]): 100
- Plant response rating, Morningglory (morningglory [9]; [18]): 10
- Morningglory plant response rating (morningglory [9]; [19]): 0
- Plant response rating, Morningglory (morningglory [9]; [20]): 10
- Plant response rating, Pigweed (pigweed; [17]): 100
- Plant response rating, Pigweed (pigweed; [18]): 70
- Pigweed plant response rating (pigweed; [19]): 20
- Plant response rating, Pigweed (pigweed; [20]): 30
- Plant response rating, Velvetleaf (velvetleaf [10]; [17]): 60
- Plant response rating, Velvetleaf (velvetleaf [10]; [18]): 20
- Velvetleaf plant response rating (velvetleaf [10]; [19]): 10
- Plant response rating, Velvetleaf (velvetleaf [10]; [20]): 20
- Plant response rating, Blackgrass (blackgrass; [21]): 20
- Blackgrass plant response rating (blackgrass; [22]): 0
- Plant response rating, Wheat (wheat; [21]): 20
- Wheat plant response rating (wheat; [22]): 10
- Plant response rating, Oat, Wild (wild oat; [21]): 30
- Oat, Wild plant response rating (wild oat; [22]): 20
- Rice plant response rating (rice): 70
- Sedge, Umbrella plant response rating [11]: 60
- Ducksalad plant response rating (ducksalad): 90
- Barnyardgrass plant response rating (barnyardgrass [12]): 80
